Consider 1 molecule from patent publication US20250268261A1, “METHODS FOR THE CONTROL OF POA ANNUA IN WARM SEASON TURFGRASS USING THIENCARBAZONE-METHYL” (Discovery Purchaser Corporation, priority 2024, published 2025).

Holding throughout (type): in vivo
For test [1], the system named is Poa annua. In words: Field trial, bermudagrass stands infested with Poa annua, Clayton, North Carolina, autumn 2022. Particulars: FIG. 11. An excerpt: (§1) As used herein, the term “Abbott's percentage reduction,” in all of its forms, refers to a measure of percentage control relative to the population in an untreated control stand of turfgrass. Rather than representing a simple percentage control on a per treatment basis, the Abbott's percentage reduction measure accounts for naturally occurring shifts in the target population and limits rating bias over time. Abbott's percentage reduction may be represented by the following
Stands of bermudagrass infested with Poa annua were treated with thiencarbazone-methyl (TCM) at different stages of Poa annua development and under different climatological conditions in a set of trials conducted during the autumn of 2022 in Clayton, North Carolina. Stands of bermudagrass containing Poa annua in a pre-emergent growth phase were treated with thiencarbazone-methyl (TCM) on September 23rd. Stands of bermudagrass containing Poa annua in an early post-emergent growth state characterized by having two or fewer tillers were treated with thiencarbazone-methyl (TCM) on November 21st. Stands of bermudagrass containing Po annua in a late post-emergent growth state characterized by having more than two tillers were treated with thiencarbazone-methyl (TCM) on December 8th. The Clayton trial data is shown in FIG. 11 while FIG. 13 provides the corresponding environmental data for Clayton during the trials. […]

For test [2], the system named is Poa annua. The test can be described thus: Field trial, bermudagrass stands infested with Poa annua, Blacksburg, Virginia, autumn 2022. The note with it: FIG. 10.
Source text: as §1
Stands of bermudagrass infested with Poa annua were treated with thiencarbazone-methyl (TCM) at different stages of Poa annua development and under different climatological conditions in a set of trials conducted during the autumn of 2022 in Blacksburg, Virginia. Stands of bermudagrass containing Poa annua in a pre-emergent growth phase were treated with thiencarbazone-methyl (TCM) on September 14th. Stands of bermudagrass containing Poa annua in an early post-emergent growth state characterized by having two or fewer tillers were treated with thiencarbazone-methyl (TCM) on October 5th. Stands of bermudagrass containing Poa annua in a late post-emergent growth state characterized by having more than two tillers were treated with thiencarbazone-methyl (TCM) on November 9th. The Blacksburg trial data is shown in FIG. 10 while FIG. 12 provides the corresponding environmental data for Blacksburg during the trials. The Days After Application “DAA” shown in FIG. 10 refers to the days after thiencarbazone-methyl (TCM) was applied to the stands of bermudagrass containing Poa annua in a pre-emergent growth phase on Sep. 14, 2022. The horizontal line in FIG. 12 represents the temperature (66 degrees Fahrenheit) at which peak Poa annua germination has been observed. […] However, treatment of bermudagrass stands containing Poa annua at a later growth stage fell well below the minimum commercially acceptable 80% Abbott control threshold effectiveness.

For test [3], the system named is Poa annua. In words: Single application to warm season turfgrass according to the disclosed methods (summary statement). Particulars: early post-emergence, for at least 120 days following application.

Regarding `COC(=O)c1csc(C)c1S(=O)(=O)NC(=O)n1nc(OC)n(C)c1=O` [thiencarbazone-methyl, methyl 4-[(3-methoxy-4-methyl-5-oxo-1,2,4-triazole-1-carbonyl)sulfamoyl]-5-methylthiophene-3-carboxylate], the “Abbott control threshold effectiveness” value is recorded as no less than 80% in test [1] (30 g/ha, early post-emergent growth phase (two or fewer tillers, treated November 21), 117 days after the pre-emergence treatment application); less than 80% in test [1] (Poa annua at a later growth stage (more than two tillers, treated December 8)); no less than 80% in test [2] (15 g/ha, early post-emergent growth phase (two or fewer tillers, treated October 5), 77, 91 and 148 days after the pre-emergence treatment application); no less than 80% in test [2] (30 g/ha, early post-emergent growth phase (two or fewer tillers, treated October 5), 77, 91 and 148 days after the pre-emergence treatment application); less than 80% in test [2] (Poa annua at a later growth stage (more than two tillers, treated November 9)). In addition, the “reduction in Poa annua population” value in test [3] is on record as no less than 80%.
